How the values were obtained:
Format in all cases: in vivo
[1] = system: chickweed (common chickweed, Stellaria media); test: Test C postemergence, plant response rating; conditions: for Chickweed plant response rating: scale 0 to 100 (0 no effect, 100 complete control)
Method in brief: (§1)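 Both timings shared one formulation, a non-phytotoxic solvent mixture with surfactant, and a greenhouse period of 13 to 15 d. Preemergence used seeded loam/sand or silt loam soil, postemergence used 2 to 18 cm plants; visual ratings ran from 0 (no effect) to 100 (complete control).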

[2] = system: ryegrass, Italian (Italian ryegrass, Lolium multiflorum); test: Test C postemergence, plant response rating; conditions: for Ryegrass, Italian plant response rating: scale 0 to 100 (0 no effect, 100 complete control)
Method in brief: as §1

[3] = system: waterhemp (common waterhemp, Amaranthus rudis); test: Test C postemergence, plant response rating; conditions: for Waterhemp plant response rating: 125 g ai/ha, scale 0 to 100 (0 no effect, 100 complete control)
Method in brief: as §1

[4] = system: wheat (winter wheat, Triticum aestivum); test: Test C postemergence, plant response rating; conditions: for Wheat plant response rating: 125 g ai/ha, scale 0 to 100 (0 no effect, 100 complete control)
Method in brief: as §1

[5] = system: galium (catchweed bedstraw, Galium aparine); test: Test C postemergence, plant response rating; conditions: for Galium plant response rating: scale 0 to 100 (0 no effect, 100 complete control)
Method in brief: as §1

[6] = system: soybean (Glycine max); test: Test C postemergence, plant response rating; conditions: for Soybean plant response rating: scale 0 to 100 (0 no effect, 100 complete control)
Method in brief: as §1

[7] = system: oilseed rape (Brassica napus); test: Test C postemergence, plant response rating; conditions: for Oilseed Rape plant response rating: scale 0 to 100 (0 no effect, 100 complete control)
Method in brief: as §1

[8] = system: foxtail, giant (giant foxtail, Setaria faberii); test: Test C postemergence, plant response rating; conditions: for Foxtail, Giant plant response rating: scale 0 to 100 (0 no effect, 100 complete control)
Method in brief: as §1

[9] = system: blackgrass (Alopecurus myosuroides); test: Test C postemergence, plant response rating; conditions: for Plant response rating, Blackgrass: scale 0 to 100; for Blackgrass plant response rating: scale 0 to 100 (0 no effect, 100 complete control)
Method in brief: as §1

[10] = system: corn (Zea mays); test: Test A postemergence, visual injury rating
Method in brief: (§2)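 Injury scores run from 0, no effect, to 100, complete control, judged by eye against untreated plants roughly 10 days after treatment. Chemicals carried a surfactant in a non-phytotoxic solvent and went onto loam–sand soil preemergence or onto one- to two-leaf seedlings postemergence.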

[11] = system: galium (catchweed bedstraw, Galium aparine); test: Test A postemergence, visual injury rating
Method in brief: as §2

[12] = system: wheat (Triticum aestivum); test: Test A postemergence, visual injury rating
Method in brief: as §2

[13] = system: pigweed (Amaranthus retroflexus); test: Test A postemergence, visual injury rating
Method in brief: as §2

[14] = system: barnyardgrass (Echinochloa crus-galli); test: Test A postemergence, visual injury rating; conditions: 0 to 100 scale, 0 is no effect, 100 is complete control, approximately 10 days
Method in brief: as §2

[15] = system: ragweed (common ragweed, Ambrosia elatior); test: Test A postemergence, visual injury rating
Method in brief: as §2

[16] = system: Italian ryegrass (Lolium multiflorum); test: Test A postemergence, visual injury rating
Method in brief: as §2

[17] = system: giant foxtail (Setaria faberii); test: Test A postemergence, visual injury rating
Method in brief: as §2

[18] = system: kochia (Kochia scoparia); test: Test A postemergence, visual injury rating
Method in brief: as §2

[19] = system: blackgrass (Alopecurus myosuroides); test: Test A postemergence, visual injury rating
Method in brief: as §2

[20] = 31 g ai/ha, 0 to 100 scale (0 no effect, 100 complete control)
[21] = 125 g ai/ha, 0 to 100 scale, 0 is no effect, 100 is complete control, approximately 10 days

FC(F)(F)CCCCc1c(Cl)cccc1Oc1ncc(Cl)cn1 [Compound 137]
Plant response rating, Chickweed ([1]; 16 g ai/ha, scale of 0 to 100): 70
Plant response rating, Chickweed ([1]; 31 g ai/ha, scale 0 to 100): 55
Chickweed plant response rating ([1]; 62 g ai/ha): 90
Chickweed plant response rating ([1]; 125 g ai/ha): 100
Plant response rating, Ryegrass, Italian ([2]; 16 g ai/ha, scale of 0 to 100): 5
Plant response rating, Ryegrass, Italian ([2]; 31 g ai/ha, scale 0 to 100): 5
Ryegrass, Italian plant response rating ([2]; 62 g ai/ha): 5
Ryegrass, Italian plant response rating ([2]; 125 g ai/ha): 10
Plant response rating, Waterhemp ([3]; 16 g ai/ha, scale of 0 to 100): 40
Plant response rating, Waterhemp ([3]; 31 g ai/ha, scale 0 to 100): 60
Waterhemp plant response rating [3]: 75
Plant response rating, Wheat ([4]; 16 g ai/ha, scale of 0 to 100): 5
Plant response rating, Wheat ([4]; 31 g ai/ha, scale 0 to 100): 5
Wheat plant response rating [4]: 20
Plant response rating, Galium ([5]; 16 g ai/ha, scale of 0 to 100): 55
Plant response rating, Galium ([5]; 31 g ai/ha, scale 0 to 100): 70
Galium plant response rating ([5]; 62 g ai/ha): 75
Galium plant response rating ([5]; 125 g ai/ha): 85
Plant response rating, Soybean ([6]; 16 g ai/ha, scale of 0 to 100): 20
Plant response rating, Soybean ([6]; 31 g ai/ha, scale 0 to 100): 30
Soybean plant response rating ([6]; 62 g ai/ha): 45
Soybean plant response rating ([6]; 125 g ai/ha): 40
Plant response rating, Oilseed Rape ([7]; 16 g ai/ha, scale of 0 to 100): 90
Plant response rating, Oilseed Rape ([7]; 31 g ai/ha, scale 0 to 100): 95
Oilseed Rape plant response rating ([7]; 62 g ai/ha): 90
Oilseed Rape plant response rating ([7]; 125 g ai/ha): 100
Plant response rating, Foxtail, Giant ([8]; 16 g ai/ha, scale of 0 to 100): 20
Plant response rating, Foxtail, Giant ([8]; 31 g ai/ha, scale 0 to 100): 20
Foxtail, Giant plant response rating ([8]; 62 g ai/ha): 40
Foxtail, Giant plant response rating ([8]; 125 g ai/ha): 35
Plant response rating, Blackgrass ([9]; 16 g ai/ha): 5
Plant response rating, Blackgrass ([9]; 31 g ai/ha): 10
Blackgrass plant response rating ([9]; 62 g ai/ha): 15
Blackgrass plant response rating ([9]; 125 g ai/ha): 40
Corn plant response rating [10, 20]: 10
Corn plant response rating [10, 21]: 10
Galium plant response rating [11, 20]: 40
Galium plant response rating [11, 21]: 100
Wheat plant response rating [12, 20]: 0
Wheat plant response rating [12, 21]: 10
Pigweed plant response rating [13, 20]: 80
Pigweed plant response rating [13, 21]: 100
Barnyardgrass plant response rating ([14]; 31 g ai/ha): 20
Barnyardgrass plant response rating ([14]; 125 g ai/ha): 60
Ragweed plant response rating [15, 20]: 10
Ragweed plant response rating [15, 21]: 40
Ryegrass, Italian plant response rating [16, 20]: 10
Ryegrass, Italian plant response rating [16, 21]: 30
Foxtail, Giant plant response rating [17, 20]: 10
Foxtail, Giant plant response rating [17, 21]: 60
Kochia plant response rating [18, 20]: 90
Kochia plant response rating [18, 21]: 100
Blackgrass plant response rating [19, 20]: 10
Blackgrass plant response rating [19, 21]: 30

FC(F)(F)CCCCc1c(Br)cccc1Oc1ncc(Cl)cn1 [Compound 138]
Plant response rating, Chickweed ([1]; 16 g ai/ha, scale of 0 to 100): 75
Plant response rating, Chickweed ([1]; 31 g ai/ha, scale 0 to 100): 85
Chickweed plant response rating ([1]; 62 g ai/ha): 100
Chickweed plant response rating ([1]; 125 g ai/ha): 100
Plant response rating, Ryegrass, Italian ([2]; 16 g ai/ha, scale of 0 to 100): 5
Plant response rating, Ryegrass, Italian ([2]; 31 g ai/ha, scale 0 to 100): 5
Ryegrass, Italian plant response rating ([2]; 62 g ai/ha): 30
Ryegrass, Italian plant response rating ([2]; 125 g ai/ha): 35
Plant response rating, Waterhemp ([3]; 16 g ai/ha, scale of 0 to 100): 98
Plant response rating, Waterhemp ([3]; 31 g ai/ha, scale 0 to 100): 98
Waterhemp plant response rating [3]: 100
Plant response rating, Wheat ([4]; 16 g ai/ha, scale of 0 to 100): 5
Plant response rating, Wheat ([4]; 31 g ai/ha, scale 0 to 100): 5
Wheat plant response rating [4]: 35
Plant response rating, Galium ([5]; 16 g ai/ha, scale of 0 to 100): 65
Plant response rating, Galium ([5]; 31 g ai/ha, scale 0 to 100): 80
Galium plant response rating ([5]; 62 g ai/ha): 80
Galium plant response rating ([5]; 125 g ai/ha): 85
Plant response rating, Soybean ([6]; 16 g ai/ha, scale of 0 to 100): 35
Plant response rating, Soybean ([6]; 31 g ai/ha, scale 0 to 100): 55
Soybean plant response rating ([6]; 62 g ai/ha): 60
Soybean plant response rating ([6]; 125 g ai/ha): 55
Plant response rating, Oilseed Rape ([7]; 16 g ai/ha, scale of 0 to 100): 70
Plant response rating, Oilseed Rape ([7]; 31 g ai/ha, scale 0 to 100): 85
Oilseed Rape plant response rating ([7]; 62 g ai/ha): 95
Oilseed Rape plant response rating ([7]; 125 g ai/ha): 100
Plant response rating, Foxtail, Giant ([8]; 16 g ai/ha, scale of 0 to 100): 10
Plant response rating, Foxtail, Giant ([8]; 31 g ai/ha, scale 0 to 100): 20
Foxtail, Giant plant response rating ([8]; 62 g ai/ha): 30
Foxtail, Giant plant response rating ([8]; 125 g ai/ha): 65
Plant response rating, Blackgrass ([9]; 16 g ai/ha): 5
Plant response rating, Blackgrass ([9]; 31 g ai/ha): 35
Blackgrass plant response rating ([9]; 62 g ai/ha): 10
Blackgrass plant response rating ([9]; 125 g ai/ha): 65
Corn plant response rating [10, 20]: 30
Corn plant response rating [10, 21]: 60
Galium plant response rating [11, 20]: 70
Galium plant response rating [11, 21]: 100
Wheat plant response rating [12, 20]: 20
Wheat plant response rating [12, 21]: 40
Pigweed plant response rating [13, 20]: 100
Pigweed plant response rating [13, 21]: 100
Barnyardgrass plant response rating ([14]; 31 g ai/ha): 90
Barnyardgrass plant response rating ([14]; 125 g ai/ha): 90
Ragweed plant response rating [15, 20]: 30
Ragweed plant response rating [15, 21]: 60
Ryegrass, Italian plant response rating [16, 20]: 30
Ryegrass, Italian plant response rating [16, 21]: 100
Foxtail, Giant plant response rating [17, 20]: 90
Foxtail, Giant plant response rating [17, 21]: 90
Kochia plant response rating [18, 20]: 90
Kochia plant response rating [18, 21]: 100
Blackgrass plant response rating [19, 20]: 40
Blackgrass plant response rating [19, 21]: 90
